# Columns and labels:
# PI3K = experiment: Drug affinity responsive target stability (DARTS), PI3K; assay type: binding; details: 0.1–100 μM GENI, protein: pronase 50:1
# Protocol: (§1) Cells were lysed by RIPA lysis buffer, and the protein concentration was measured. The lysate was divided into six groups. Before incubation with protease (protein: pronase = 50:1 w/w for PI3K and AMPK detection, 5:1 for MAPK detection, 100:1 for p53 detection) for 25 min in 25 °C, 0.1–100 μM GENI was added to lysates and incubated for 2 h at room temperature. The samples were mixed with loading buffer and then separated on 8% SDS-PAGE for immunoblotting analysis.
# [1] = target: T1, AMPK-s4 (γ subunit- K148A) (Rattus norvegicus, UniProt P54645+P80385, K148A); experiment: SPR analysis, AMPK mutant s4; assay type: binding
# T1 construct: His (N); made in house
# Protocol: (§2) Mammalian AMPK subunits (His-α1, β1, and γ1) were cloned into a pET-3d vector, and protein expression and purification were similar to the literature.
# (§3) SPR analysis was performed with a Biacore T200 instrument (GE Healthcare). Firstly, the purred His-tagged AMPK containing α1β1γ1 protein was captured onto an activated carboxymethylated 5 (CM5) chip using amine coupling to levels ranging from 4000 RU to 6000 RU. Secondly, GENI was dissolved in PBS-P buffer solution (0.05% (v/v) Tween 20 and PBS), and the concentration of GENI was 64 μM. Thirdly, the solution of GENI was diluted to 32 μM, 16 μM, 8 μM, 4 μM, 2 μM, 1 μM and 0.5 μM with PBS-P buffer solution. The sample was filtered by pumping through a […] membrane. A gradient concentration of GENI was injected at a flow rate of 30 μL/min in a running buffer (0.05% (v/v) Tween 20 and PBS). The data were analyzed with Biacore evaluation software (T200 version 2.0) and fitted to the 1:1 Langmuir binding model, and the kinetic parameters were derived.
# The non-covalent interaction between drugs and proteins is an important way to exert drug efficacy, and its mode of action and binding affinity usually determine the utilization and biological activity of drugs. AMPK is a heterotrimer complex consisting of an α subunit containing the kinase domain and two regulatory subunits (β- and γ-). […]
# PC12 cells [2] = experiment: ROS assay (DCFH-DA) in PC12 cells; assay type: cell-based; details: GENI 1, 3 and 10 μM 24 h, 0.8 mM H2O2 1 h
# Protocol: To determine ROS levels in PC12 cells, we seeded 5 × 10^4 PC12 cells in each well of a 24-well plate. Cells were treated with RES (10 μM) or GENI (1, 3, and 10 μM) for 24 h, followed by 0.8 mM H2O2 for 1 h. DCFH-DA (2,7-dichlorodihydrofluorescein diacetate, final concentration, 10 μM) was then added to each well and incubated for 30 min. Cells were washed with PBS to remove extracellular DCFH-DA, and intercellular ROS was detected by using a SpectraMax M3 multimode microplate reader (Molecular Devices Corporation, San Jose, CA, USA) at an excitation wavelength of 488 nm and an emission wavelength of 525 nm. Meanwhile, DCF in PC12 cells was observed using a fluorescence microscope (HCS, Thermo Fisher, Science, Waltham, MA, USA). To detect malondialdehyde (MDA) content and total SOD enzymatic activities in PC12 cells, we seeded 2 × 10^6 PC12 cells in 60 mm dishes containing 5 mL of DMEM and cultured the cells for 24 h. PC12 cells were treated with RES (10 μM) or GENI (3 or 10 μM) for 24 h and then treated with 0.8 mM H2O2 for 1 h to determine the MDA content and total superoxide dismutase (SOD) activities. Cells were lysed and centrifuged. […] MDA quantification and total SOD activities were determined using MDA and SOD enzyme activity assay kits (Nanjing Jiancheng Bioengineering Institute, Nanjing, China) following the manufacturer’s instructions.
# [3] = target: T2, AMPK-s7 (γ subunit- D316A) (Rattus norvegicus, UniProt P54645+P80385, D316A); experiment: SPR analysis, AMPK mutant s7; assay type: binding
# T2 construct: His (N); made in house
# Protocol: as §2, §3
# (§4) The non-covalent interaction between drugs and proteins is an important way to exert drug efficacy, and its mode of action and binding affinity usually determine the utilization and biological activity of drugs. AMPK is a heterotrimer complex consisting of an α subunit containing the kinase domain and two regulatory subunits (β- and γ-). Different action sites have varied or even opposite pharmacological effects. The molecular mechanism of interaction between the protein and molecule should be investigated thoroughly. After co-incubation of GENI and AMPK, LC-MS/MS measurements were performed to predict the binding sites. As shown in Extended Data Figure S2, ASP148, ASP157 and ASP166 of the AMPK α subunits and LYS148, ASP156, LYS309, and ASP316 of the AMPK γ subunit were possible to the binding sites of GENI. […] Thus, all of these seven sites affected the binding of GENI and AMPK to varying degrees, and they were located in the C lobe kinase domain of the AMPK α subunit, and the CBS2 and CBS4 domain of the AMPK γ subunit, respectively.
# PC12 cells [4] = experiment: Neuroprotection assay (MTT) on H2O2-damaged PC12 cells; assay type: cell-based; details: GENI 1, 3, or 10 μM 24 h, then 0.8 mM H2O2 1 h
# Protocol: We seeded 5 × 10^4 PC12 cells in each well of a 24-well plate and incubated the cells for 24 h at 37 °C in 5% CO2. The medium was changed to 1 mL of serum-free Dulbecco’s modified Eagle’s medium (DMEM; Thermo Scientific, Shanghai, China) containing the different test samples. To determine the optimal concentration of hydrogen peroxide (H2O2), we treated cells with 0.5% dimethyl sulfoxide (DMSO) for 24 h and then incubated the cells with different concentrations of H2O2 for 1 h. In this work, 0.8 mM H2O2 was selected as the best dose for the following experiment. To study the neuroprotective effects of GENI, we treated PC12 cells with resveratrol (RES 10 μM) or GENI (1, 3, or 10 μM) for 24 h and 0.8 mM H2O2 for 1 h. The medium was changed to 500 μL of serum-free DMEM containing 200 μg/mL 3-(4,5-dimethyltaizol-2-yl)-2,5-diphenyltetrazolium bromide (MTT) and incubated for an additional 2 h. The medium was completely removed, and 200 μL of DMSO was added to each well to dissolve the formed formazan crystals. The resulting formazan was detected at 570 nm using a microplate reader (Bio-Tec Instruments Inc., Winooski, VT, USA).
# [5] = target: T3, AMPK-s6 (γ subunit- K309A) (Rattus norvegicus, UniProt P54645+P80385, K309A); experiment: SPR analysis, AMPK mutant s6; assay type: binding
# T3 construct: His (N); made in house
# Protocol: as §2, §3, §4
# MAPK = experiment: Drug affinity responsive target stability (DARTS), MAPK; assay type: binding; details: 0.1–100 μM GENI, protein: pronase 5:1
# Protocol: as §1
# [6] = SPR, association rate, read-out: Ka
# T2 sequence (P54645 13-559 limits assumed): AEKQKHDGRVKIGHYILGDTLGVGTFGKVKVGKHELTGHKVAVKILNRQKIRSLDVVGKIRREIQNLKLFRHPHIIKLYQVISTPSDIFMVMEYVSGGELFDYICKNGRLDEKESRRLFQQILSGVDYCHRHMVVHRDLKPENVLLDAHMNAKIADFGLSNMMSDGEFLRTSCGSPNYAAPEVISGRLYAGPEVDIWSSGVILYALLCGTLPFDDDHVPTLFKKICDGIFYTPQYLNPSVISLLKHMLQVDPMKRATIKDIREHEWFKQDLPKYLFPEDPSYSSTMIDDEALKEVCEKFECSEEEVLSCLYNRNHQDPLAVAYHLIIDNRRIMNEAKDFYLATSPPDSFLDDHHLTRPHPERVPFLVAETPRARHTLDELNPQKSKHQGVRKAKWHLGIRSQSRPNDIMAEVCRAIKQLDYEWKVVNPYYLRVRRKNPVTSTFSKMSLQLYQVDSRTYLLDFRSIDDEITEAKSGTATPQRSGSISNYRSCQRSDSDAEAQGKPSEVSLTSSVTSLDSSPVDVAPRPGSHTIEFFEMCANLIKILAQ
# T2 sequence (P80386 whole entry partner): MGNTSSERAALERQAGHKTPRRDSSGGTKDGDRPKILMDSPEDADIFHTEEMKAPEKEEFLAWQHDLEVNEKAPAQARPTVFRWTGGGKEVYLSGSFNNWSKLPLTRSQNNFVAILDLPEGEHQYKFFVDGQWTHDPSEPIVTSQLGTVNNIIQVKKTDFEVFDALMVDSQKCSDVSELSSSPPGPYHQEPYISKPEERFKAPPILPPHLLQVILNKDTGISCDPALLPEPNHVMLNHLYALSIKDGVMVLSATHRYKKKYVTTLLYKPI
# T2 sequence (P80385 whole entry D316A): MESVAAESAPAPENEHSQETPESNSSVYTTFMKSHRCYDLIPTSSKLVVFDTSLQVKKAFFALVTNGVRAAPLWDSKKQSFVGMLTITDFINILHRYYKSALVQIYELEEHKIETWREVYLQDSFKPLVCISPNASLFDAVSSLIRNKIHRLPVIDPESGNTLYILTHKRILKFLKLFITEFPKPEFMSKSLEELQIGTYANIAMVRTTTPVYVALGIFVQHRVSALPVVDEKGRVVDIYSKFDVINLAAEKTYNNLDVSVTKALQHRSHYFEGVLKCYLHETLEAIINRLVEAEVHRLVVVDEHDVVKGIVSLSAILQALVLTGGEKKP
# T3 sequence (P54645 13-559 limits assumed): as the sequence (P54645 13-559 limits assumed) above
# T3 sequence (P80386 whole entry partner): as the sequence (P80386 whole entry partner) above
# T3 sequence (P80385 whole entry K309A): as the sequence (P80385 whole entry D316A) above, with K309A, A316D counted along it
# T1 sequence (P54645 13-559 limits assumed): as the sequence (P54645 13-559 limits assumed) above
# T1 sequence (P80386 whole entry partner): as the sequence (P80386 whole entry partner) above
# T1 sequence (P80385 whole entry K148A): as the sequence (P80385 whole entry D316A) above, with K148A, A316D counted along it
structure (smiles),measurement,setting,value
"CC(C)CCOC(=O)C1=CO[C@@H](O[C@@H]2O[C@H](CO)[C@@H](O)[C@H](O)[C@H]2O)C2C(CO)=CCC12 (stereo partly drawn) [GENI, Geniposidic 4-isoamyl ester]",stability of PI3K against pronase (DARTS),PI3K,no obvious effect
same,kon,[1]; [6],4130 M⁻¹ s⁻¹
same,dose-dependent relationship in SPR,[1]; point mutation of K148,dose-dependent relationship was lost
same,H2O2-induced increase in ROS,PC12 cells [2],significantly reduce
same,Kd,[3]; SPR,6.46 µM
same,kon,[3]; [6],808 M⁻¹ s⁻¹
same,response (RU) in SPR,"[3]; point mutation of D316, versus wild-type",significantly reduced
same,survival rate of PC12 cells induced by H2O2,PC12 cells [4],significantly improve
same,Kd,[5]; SPR,6.21 µM
same,kon,[5]; [6],806 M⁻¹ s⁻¹
same,response (RU) in SPR,"[5]; point mutation of K309, versus wild-type",significantly reduced
same,stability of MAPK against pronase (DARTS),MAPK,dramatically enhanced the stability
